Test results from ChEMBL document CHEMBL1131345, “Synthesis of N-(1-ethyl-4-methylhexahydro-1,4-diazepin-6-yl)nicotinamides and their affinities for 5-HT3 and dopamine D2 receptors” (Bioorg Med Chem Lett, 1998).
pIC50: −log10 of the molar value.

How the values were obtained:
[1] = target: T1, Serotonin 3 (5-HT3) receptor (Rattus norvegicus, UniProt P35563+Q9JJ16); experiment: Inhibition of [3H]GR-65630 binding to rat cortical membrane 5-hydroxytryptamine 3 receptor
T1 sequence (P35563 whole entry): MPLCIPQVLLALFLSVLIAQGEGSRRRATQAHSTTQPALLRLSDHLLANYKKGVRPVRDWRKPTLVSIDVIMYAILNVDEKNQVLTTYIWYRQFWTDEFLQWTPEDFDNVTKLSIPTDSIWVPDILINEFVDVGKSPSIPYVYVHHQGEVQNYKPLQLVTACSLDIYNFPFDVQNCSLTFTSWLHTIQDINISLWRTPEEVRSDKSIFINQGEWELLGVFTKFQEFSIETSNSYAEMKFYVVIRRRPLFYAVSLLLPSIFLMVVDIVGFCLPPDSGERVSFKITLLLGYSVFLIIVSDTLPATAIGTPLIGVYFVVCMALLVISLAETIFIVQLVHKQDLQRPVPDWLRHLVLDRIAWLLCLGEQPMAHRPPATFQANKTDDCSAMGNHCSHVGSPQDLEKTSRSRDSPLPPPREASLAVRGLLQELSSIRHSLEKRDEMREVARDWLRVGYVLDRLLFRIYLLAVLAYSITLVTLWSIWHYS
T1 sequence (Q9JJ16 whole entry): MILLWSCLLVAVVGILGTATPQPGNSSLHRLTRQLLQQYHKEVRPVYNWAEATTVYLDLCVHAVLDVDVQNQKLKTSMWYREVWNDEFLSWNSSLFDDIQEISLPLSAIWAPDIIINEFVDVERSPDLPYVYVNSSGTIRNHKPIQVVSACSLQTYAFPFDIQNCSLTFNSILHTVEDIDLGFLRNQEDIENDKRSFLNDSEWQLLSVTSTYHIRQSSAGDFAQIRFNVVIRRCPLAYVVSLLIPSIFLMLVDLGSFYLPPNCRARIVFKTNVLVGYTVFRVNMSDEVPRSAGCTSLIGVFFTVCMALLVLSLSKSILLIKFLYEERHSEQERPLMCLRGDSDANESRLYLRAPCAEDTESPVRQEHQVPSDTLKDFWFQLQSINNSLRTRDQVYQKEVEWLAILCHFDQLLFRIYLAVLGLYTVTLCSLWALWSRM

[2] = target: D(2) dopamine receptor (Rattus norvegicus, UniProt P61169); experiment: Inhibition of [3H]- spiperone binding to rat brain Dopamine receptor D2
D(2) dopamine receptor, sequence (P61169 whole entry): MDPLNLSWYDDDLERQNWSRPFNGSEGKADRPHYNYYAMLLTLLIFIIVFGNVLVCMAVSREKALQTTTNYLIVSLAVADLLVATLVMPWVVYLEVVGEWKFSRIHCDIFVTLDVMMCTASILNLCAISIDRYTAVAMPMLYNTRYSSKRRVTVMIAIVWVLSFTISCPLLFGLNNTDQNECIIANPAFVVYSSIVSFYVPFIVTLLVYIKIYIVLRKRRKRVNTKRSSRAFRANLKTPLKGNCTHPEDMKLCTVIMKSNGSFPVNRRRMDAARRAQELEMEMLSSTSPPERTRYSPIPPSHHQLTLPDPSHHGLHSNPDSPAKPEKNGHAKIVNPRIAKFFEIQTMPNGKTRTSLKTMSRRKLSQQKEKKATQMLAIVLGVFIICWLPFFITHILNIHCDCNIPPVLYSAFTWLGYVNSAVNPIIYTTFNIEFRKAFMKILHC

| SMILES | pIC50 [1] | pIC50 [2] |
| --- | --- | --- |
| CCN1CCN(C)CC(NC(=O)c2cc(Br)c(N(C)C)nc2OC)C1 (stereo not drawn) | 8.00 | 7.12 |
| CCN1CCN(C)CC(NC(=O)c2cc(Cl)c(N)nc2OC)C1 (stereo not drawn) | 8.29 | 6.41 |
| CCNc1nc(OC)c(C(=O)NC2CN(C)CCN(CC)C2)cc1Cl (stereo not drawn) | 8.70 | 7.12 |
| CCN1CCN(C)C[C@@H](NC(=O)c2cc(Cl)c(NC)nc2OC)C1 | 8.80 | 7.74 |
| CCN(CC)CCNC(=O)c1cc(Cl)c(N)cc1OC [METOCLOPRAMIDE] | 6.06 | – |
| CCN1CCN(C)C[C@@H](NC(=O)c2cc(Cl)c(NC)cc2OC)C1 | 8.54 | 7.46 |

Further compounds by rising pIC50 [1], results first:

| pIC50 [1] | pIC50 [2] | SMILES |
| --- | --- | --- |
| 8.42 | 7.32 | CCNc1nc(OC)c(C(=O)NC2CN(C)CCN(CC)C2)cc1Br (stereo not drawn) |
| 8.68 | 6.69 | CCN1CCN(C)C[C@H](NC(=O)c2cc(Cl)c(NC)nc2OC)C1 |
| 8.89 | 7.37 | CCN1CCN(C)CC(NC(=O)c2cc(Cl)c(NC)nc2OC)C1 (stereo not drawn) |
| 8.92 | 7.09 | CCN1CCN(C)C[C@H](NC(=O)c2cc(Br)c(NC)nc2OC)C1 |
| 8.96 | 7.92 | CCN1CCN(C)C[C@@H](NC(=O)c2cc(Br)c(NC)nc2OC)C1 |
| 9.00 | 7.64 | CCN1CCN(C)CC(NC(=O)c2cc(Br)c(NC)nc2OC)C1 (stereo not drawn) |
